From US20230017045A1, “PYRIDINE AND PYRIMIDINE CARBOXYLATE HERBICIDES AND METHODS OF USE THEREOF” (Dow AgroSciences LLC, priority 2017, published 2023)
Read-outs that look alike come from different tables or passages of the source.

Test system: test plant species
Assay: Post-emergent herbicidal activity test (greenhouse, foliar spray, visual growth reduction)
Format: in vivo
Conditions: post-emergence, 336 h, 140 g ai/ha
Outline: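 Plants grown in greenhouse (15 h photoperiod, 23-29° C day/22-28° C night) to first or second true leaf stage were sprayed overhead with compound in acetone/water/isopropanol/DMSO/crop oil/X-77 carrier at 187 L/ha. Injury was scored visually after 14 d on a 0-100% scale versus solvent-blank and untreated controls.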

[1] = ECHCG: barnyardgrass (Echinochloa crus-galli), 14 days after application, read-out: Visual Growth Reduction (%) 14 Days After Application, ECHCG
[2] = IPOHE: ivy-leaf morning glory (Ipomoea hederacea), 14 days after application, read-out: Visual Growth Reduction (%) 14 Days After Application, IPOHE
[3] = KCHSC: kochia (Bassia scoparia), 14 days after application, read-out: Visual Growth Reduction (%) 14 Days After Application, KCHSC
[4] = ORYSA: rice (Oryza sativa), 14 days after application, read-out: Visual Growth Reduction (%) 14 Days After Application, ORYSA
[5] = SETFA: giant foxtail (Setaria faberi), 14 days after application, read-out: Visual Growth Reduction (%) 14 Days After Application, SETFA
[6] = SORVU: grain sorghum (Sorghum vulgare), 14 days after application, read-out: Visual Growth Reduction (%) 14 Days After Application, SORVU
[7] = STEME: common chickweed (Stellaria media), 14 days after application, read-out: Visual Growth Reduction (%) 14 Days After Application, STEME
[8] = TRZAS: wheat, spring (Triticum aestivum), 14 days after application, read-out: Visual Growth Reduction (%) 14 Days After Application, TRZAS
[9] = blackgrass (Alopecurus myosuroides), 14 Days After Application, read-out: Visual Growth Reduction (%) ALOMY
[10] = canada thistle (Cirsium arvense), 14 Days After Application, read-out: Visual Growth Reduction (%) CIRAR
[11] = crabgrass (Digitaria sanguinalis), 14 Days After Application, read-out: Visual Growth Reduction (%) DIGSA
[12] = lambsquarters (Chenopodium album), 14 Days After Application, read-out: Visual Growth Reduction (%) CHEAL
[13] = redroot pigweed (Amaranthus retroflexus), 14 Days After Application, read-out: Visual Growth Reduction (%) AMARE
[14] = wild oat (Avena fatua), 14 Days After Application, read-out: Visual Growth Reduction (%) AVEFA
[15] = yellow nutsedge (Cyperus esculentus), 14 Days After Application, read-out: Visual Growth Reduction (%) CYPES

| Compound | pest or weed control at 140 g/ha [1] | pest or weed control at 140 g/ha [2] | pest or weed control at 140 g/ha [3] | pest or weed control at 140 g/ha [4] | pest or weed control at 140 g/ha [5] | pest or weed control at 140 g/ha [6] | pest or weed control at 140 g/ha [7] | pest or weed control at 140 g/ha [8] | pest or weed control at 140 g/ha [9] | pest or weed control at 140 g/ha [10] | pest or weed control at 140 g/ha [11] | pest or weed control at 140 g/ha [12] | pest or weed control at 140 g/ha [13] | pest or weed control at 140 g/ha [14] | pest or weed control at 140 g/ha [15] |
| --- | --- | --- | --- | --- | --- | --- | --- | --- | --- | --- | --- | --- | --- | --- | --- |
| COC(=O)c1nc(-c2cccc(C(F)(F)F)c2F)ccc1Cl [F289, Methyl 3-chloro-6-(2-fluoro-3-(trifluoromethyl)phenyl)picolinate] | 0 to 29% | 45 to 59% | 0 to 29% | 0 to 29% | 0 to 29% | 0 to 29% | 0 to 29% | 0 to 29% | 0 to 29% | 30 to 44% | 0 to 29% | 30 to 44% | 0 to 29% | 0 to 29% | 0 to 29% |
| COC(=O)c1nc(-c2cccc(OC(F)(F)F)c2F)ccc1Cl [F290, Methyl 3-chloro-6-(2-fluoro-3-(trifluoromethoxy)phenyl)picolinate] | 0 to 29% | 75 to 84% | 0 to 29% | 0 to 29% | 0 to 29% | 0 to 29% | 0 to 29% | 0 to 29% | 0 to 29% | 0 to 29% | 0 to 29% | 0 to 29% | 0 to 29% | 0 to 29% | 60 to 74% |
| COC(=O)c1nc(-c2cc(F)c(OC)cc2F)ccc1Cl [F291, Methyl 3-chloro-6-(2,5-difluoro-4-methoxyphenyl) picolinate] | 0 to 29% | 0 to 29% | 0 to 29% | 0 to 29% | 0 to 29% | 0 to 29% | 0 to 29% | 0 to 29% | 0 to 29% | 30 to 44% | 0 to 29% | 45 to 59% | 0 to 29% | 0 to 29% | 0 to 29% |
| COC(=O)c1nc(-c2ccc(F)c(OC)c2)ccc1Cl [F292, Methyl 3-chloro-6-(4-fluoro-3-methoxyphenyl) picolinate] | 0 to 29% | 30 to 44% | 45 to 59% | 0 to 29% | 0 to 29% | 0 to 29% | 0 to 29% | 0 to 29% | 0 to 29% | 60 to 74% | 0 to 29% | 85 to 94% | 0 to 29% | 0 to 29% | 60 to 74% |
| Cc1c(C(F)(F)F)ccc(-c2ccc(Cl)c(C(=O)O)n2)c1F [F293, 3-Chloro-6-(2-fluoro-3-methyl-4-(trifluoromethyl)phenyl)picolinic acid] | 0 to 29% | 0 to 29% | 0 to 29% | 0 to 29% | 0 to 29% | 0 to 29% | 0 to 29% | 0 to 29% | 0 to 29% | 30 to 44% | 0 to 29% | 45 to 59% | 0 to 29% | 0 to 29% | 0 to 29% |
| O=C(O)c1nc(-c2ccc(C(F)(F)F)c(C(F)F)c2F)c(F)cc1Cl [F294, 3-Chloro-6-(3-(difluoromethyl)-2-fluoro-4-(trifluoromethyl)phenyl)-5-fluoropicolinic acid] | 60 to 74% | 95 to 100% | 75 to 84% | 0 to 29% | 85 to 94% | 95 to 100% | 0 to 29% | 60 to 74% | 75 to 84% | 75 to 84% | 85 to 94% | 85 to 94% | 95 to 100% | 60 to 74% | 0 to 29% |
| COC(=O)c1nc(-c2ccc(C(F)(F)F)c(OC)c2)c(F)cc1Cl [F295, Methyl 3-chloro-5-fluoro-6-(3-methoxy-4-(trifluoromethyl)phenyl)picolinate] | 0 to 29% | 60 to 74% | 0 to 29% | 0 to 29% | 0 to 29% | 0 to 29% | 0 to 29% | 0 to 29% | 0 to 29% | 60 to 74% | 45 to 59% | 30 to 44% | 0 to 29% | 0 to 29% | 75 to 84% |
| COC(=O)c1nc(-c2ccc(C(F)(F)F)c(OC)c2)ccc1Cl [F296, Methyl 3-chloro-6-(3-methoxy-4-(trifluoromethyl)phenyl)picolinate] | 0 to 29% | 45 to 59% | 0 to 29% | 0 to 29% | 0 to 29% | 0 to 29% | 0 to 29% | 0 to 29% | 0 to 29% | 60 to 74% | 0 to 29% | 0 to 29% | 0 to 29% | 0 to 29% | 0 to 29% |
| COC(=O)c1nc(-c2ccc(C(F)(F)F)c3ccoc23)c(F)cc1Cl [F297, Methyl 3-chloro-5-fluoro-6-(4-(trifluoromethyl)benzofuran-7-yl) picolinate] | 0 to 29% | 95 to 100% | 45 to 59% | 0 to 29% | 60 to 74% | 60 to 74% | 0 to 29% | 0 to 29% | 0 to 29% | 85 to 94% | 75 to 84% | 85 to 94% | 85 to 94% | 0 to 29% | 0 to 29% |
| COC(=O)c1nc(-c2ccc(Cl)c(F)c2C)ccc1Cl [F298, Methyl 3-chloro-6-(4-chloro-3-fluoro-2-methylphenyl) picolinate] | 0 to 29% | 95 to 100% | 0 to 29% | 0 to 29% | 75 to 84% | 75 to 84% | 0 to 29% | 0 to 29% | 0 to 29% | 60 to 74% | 0 to 29% | 75 to 84% | 30 to 44% | 0 to 29% | 0 to 29% |
